Source: the kinase profiling compilation of Christmann-Franck et al. (2016)
Values joined by “and” are separate entries in the source; they are usually repeats but may differ in a detail not shown here. Equal entries are not always repeated.

Assays:
Assay in all cases: radiometric filter-binding kinase assay, Kinase HotSpot
Settings in all cases: compound 0.5 µM; ATP 10 µM
RPS6KB2 (human) = RPS6KB2 (human) (UniProt Q9UBS0)
CLK1 (human) = CLK1 (human) (UniProt P49759)
BRSK1 (human) = BRSK1 (human) (UniProt Q8TDC3)
ROS1 (human) = ROS1 (human) (UniProt P08922)
RIPK2 (human) = RIPK2 (human) (UniProt O43353)
CDK4 CCND3 (human) = CDK4 CCND3 (human) (UniProt P30281+P11802)
BLK (human) = BLK (human) (UniProt P51451)
MAP3K3 (human) = MAP3K3 (human) (UniProt Q99759)
CDK4 CCND1 (human) = CDK4 CCND1 (human) (UniProt P24385+P11802)
AXL (human) = AXL (human) (UniProt P30530)
LYN (human) = LYN (human) (UniProt P07948)
EPHB4 (human) = EPHB4 (human) (UniProt P54760)
PRKD3 (human) = PRKD3 (human) (UniProt O94806)
MUSK (human) = MUSK (human) (UniProt O15146)
CSNK1A1 (human) = CSNK1A1 (human) (UniProt P48729)
SGK2 (human) = SGK2 (human) (UniProt Q9HBY8)
YES1 (human) = YES1 (human) (UniProt P07947)
CDK9 CCNT1 (human) = CDK9 CCNT1 (human) (UniProt P50750+O60563)
PIM2 (human) = PIM2 (human) (UniProt Q9P1W9)
JAK3 JH1 JH2 (human) = JAK3 JH1 JH2 (human) (UniProt P52333)
TAOK1 (human) = TAOK1 (human) (UniProt Q7L7X3)
STK39 (human) = STK39 (human) (UniProt Q9UEW8)
CAMK1D (human) = CAMK1D (human) (UniProt Q8IU85)
MARK2 (human) = MARK2 (human) (UniProt Q7KZI7)
TGFBR2 (human) = TGFBR2 (human) (UniProt P37173)
ULK2 (human) = ULK2 (human) (UniProt Q8IYT8)
LCK (human) = LCK (human) (UniProt P06239)
DYRK3 (human) = DYRK3 (human) (UniProt O43781)
DMPK (human) = DMPK (human) (UniProt Q09013)
PRKG1 (human) = PRKG1 (human) (UniProt Q13976)
CDC42BPB (human) = CDC42BPB (human) (UniProt Q9Y5S2)
CLK3 (human) = CLK3 (human) (UniProt P49761)
ABL1 (human) = ABL1 (human) (UniProt P00519)
RPS6KB1 (human) = RPS6KB1 (human) (UniProt P23443)
FGFR3 (human) = FGFR3 (human) (UniProt P22607)
CDK5 CDK5R1 p35 (human) = CDK5 CDK5R1 p35 (human) (UniProt Q00535+Q15078)
GRK5 (human) = GRK5 (human) (UniProt P34947)
ROCK2 (human) = ROCK2 (human) (UniProt O75116)
FRK (human) = FRK (human) (UniProt P42685)
CAMK1 (human) = CAMK1 (human) (UniProt Q14012)
LIMK1 (human) = LIMK1 (human) (UniProt P53667)
WNK2 (human) = WNK2 (human) (UniProt Q9Y3S1)

Sequence of PRKG1 (human) (Q13976 whole entry, looked up): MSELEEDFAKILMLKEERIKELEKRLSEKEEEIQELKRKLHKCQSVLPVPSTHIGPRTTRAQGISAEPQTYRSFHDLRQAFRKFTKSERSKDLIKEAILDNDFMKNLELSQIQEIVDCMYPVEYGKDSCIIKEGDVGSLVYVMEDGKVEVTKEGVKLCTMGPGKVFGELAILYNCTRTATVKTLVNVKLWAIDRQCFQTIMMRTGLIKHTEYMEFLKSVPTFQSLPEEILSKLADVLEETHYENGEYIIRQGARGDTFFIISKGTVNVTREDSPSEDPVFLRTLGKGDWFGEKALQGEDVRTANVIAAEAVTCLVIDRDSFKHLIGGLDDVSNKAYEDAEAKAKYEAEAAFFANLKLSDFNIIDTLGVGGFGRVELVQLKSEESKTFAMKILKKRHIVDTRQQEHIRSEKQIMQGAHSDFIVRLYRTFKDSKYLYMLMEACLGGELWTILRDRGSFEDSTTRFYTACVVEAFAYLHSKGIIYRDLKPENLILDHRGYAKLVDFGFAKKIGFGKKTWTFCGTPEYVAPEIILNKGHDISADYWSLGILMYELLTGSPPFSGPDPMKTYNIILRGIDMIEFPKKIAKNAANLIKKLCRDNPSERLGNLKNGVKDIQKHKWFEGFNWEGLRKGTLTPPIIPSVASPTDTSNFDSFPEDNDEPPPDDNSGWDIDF
Sequence of LYN (human) (P07948 whole entry, looked up): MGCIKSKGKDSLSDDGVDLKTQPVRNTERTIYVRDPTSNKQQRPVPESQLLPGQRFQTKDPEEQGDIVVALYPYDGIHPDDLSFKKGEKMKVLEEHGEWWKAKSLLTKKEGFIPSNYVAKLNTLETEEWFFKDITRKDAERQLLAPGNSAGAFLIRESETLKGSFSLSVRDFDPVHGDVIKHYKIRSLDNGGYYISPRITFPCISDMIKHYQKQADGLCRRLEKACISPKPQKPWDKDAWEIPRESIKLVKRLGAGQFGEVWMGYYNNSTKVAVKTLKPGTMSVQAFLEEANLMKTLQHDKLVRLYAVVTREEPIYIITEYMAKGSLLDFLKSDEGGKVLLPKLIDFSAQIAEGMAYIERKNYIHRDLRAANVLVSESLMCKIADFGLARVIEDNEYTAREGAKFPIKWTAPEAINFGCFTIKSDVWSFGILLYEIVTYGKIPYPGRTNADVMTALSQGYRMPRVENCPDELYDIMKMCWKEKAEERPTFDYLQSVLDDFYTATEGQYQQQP
Sequence of EPHB4 (human) (P54760 whole entry, looked up): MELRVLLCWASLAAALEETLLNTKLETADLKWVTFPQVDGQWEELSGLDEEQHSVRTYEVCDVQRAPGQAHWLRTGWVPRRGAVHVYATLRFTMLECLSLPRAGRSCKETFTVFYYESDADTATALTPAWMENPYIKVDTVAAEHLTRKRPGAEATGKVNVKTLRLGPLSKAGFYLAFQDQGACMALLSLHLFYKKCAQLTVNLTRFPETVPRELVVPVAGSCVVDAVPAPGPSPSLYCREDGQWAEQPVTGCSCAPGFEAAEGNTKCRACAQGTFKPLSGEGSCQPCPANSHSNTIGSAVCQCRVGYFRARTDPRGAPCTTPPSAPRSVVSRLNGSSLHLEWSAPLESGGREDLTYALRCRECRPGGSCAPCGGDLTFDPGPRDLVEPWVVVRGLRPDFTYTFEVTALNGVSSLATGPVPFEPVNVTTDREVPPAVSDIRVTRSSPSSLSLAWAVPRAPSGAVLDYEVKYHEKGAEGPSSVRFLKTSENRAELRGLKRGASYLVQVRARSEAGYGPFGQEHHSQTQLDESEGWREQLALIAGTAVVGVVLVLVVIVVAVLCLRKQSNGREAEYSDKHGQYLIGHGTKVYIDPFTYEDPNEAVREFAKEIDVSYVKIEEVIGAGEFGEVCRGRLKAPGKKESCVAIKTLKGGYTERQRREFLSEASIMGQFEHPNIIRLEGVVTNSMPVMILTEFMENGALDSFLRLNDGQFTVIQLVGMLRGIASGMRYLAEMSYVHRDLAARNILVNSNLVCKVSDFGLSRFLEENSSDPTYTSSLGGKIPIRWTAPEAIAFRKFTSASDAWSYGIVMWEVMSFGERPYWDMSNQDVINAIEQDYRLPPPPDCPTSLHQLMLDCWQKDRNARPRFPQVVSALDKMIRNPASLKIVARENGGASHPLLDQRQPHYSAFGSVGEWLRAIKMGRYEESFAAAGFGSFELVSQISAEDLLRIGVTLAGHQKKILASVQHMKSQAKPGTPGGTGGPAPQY
Sequence of AXL (human) (P30530 whole entry, looked up): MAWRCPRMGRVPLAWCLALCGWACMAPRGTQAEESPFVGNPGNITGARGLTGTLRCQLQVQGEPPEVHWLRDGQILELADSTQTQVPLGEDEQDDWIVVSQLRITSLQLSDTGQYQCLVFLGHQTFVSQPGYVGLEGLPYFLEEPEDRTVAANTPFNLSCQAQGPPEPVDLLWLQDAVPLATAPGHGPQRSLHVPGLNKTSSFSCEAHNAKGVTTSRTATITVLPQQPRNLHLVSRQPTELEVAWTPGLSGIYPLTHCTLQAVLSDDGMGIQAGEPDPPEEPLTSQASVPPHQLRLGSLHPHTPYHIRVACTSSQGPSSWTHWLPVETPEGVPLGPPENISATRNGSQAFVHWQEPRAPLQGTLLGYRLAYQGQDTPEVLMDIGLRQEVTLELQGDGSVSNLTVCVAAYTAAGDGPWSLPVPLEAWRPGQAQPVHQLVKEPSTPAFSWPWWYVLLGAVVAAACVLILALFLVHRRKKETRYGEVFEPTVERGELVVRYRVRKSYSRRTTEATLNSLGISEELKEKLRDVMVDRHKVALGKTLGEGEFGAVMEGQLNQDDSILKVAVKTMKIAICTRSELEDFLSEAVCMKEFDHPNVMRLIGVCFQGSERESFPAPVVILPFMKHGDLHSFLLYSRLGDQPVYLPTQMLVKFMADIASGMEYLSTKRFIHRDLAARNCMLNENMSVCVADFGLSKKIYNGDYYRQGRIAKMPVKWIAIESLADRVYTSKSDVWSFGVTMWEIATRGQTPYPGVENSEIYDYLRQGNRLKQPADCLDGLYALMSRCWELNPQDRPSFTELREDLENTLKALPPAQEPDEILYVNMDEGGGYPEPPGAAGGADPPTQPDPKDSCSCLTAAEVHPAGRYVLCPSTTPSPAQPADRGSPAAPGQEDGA
Sequence of SGK2 (human) (Q9HBY8 whole entry, looked up): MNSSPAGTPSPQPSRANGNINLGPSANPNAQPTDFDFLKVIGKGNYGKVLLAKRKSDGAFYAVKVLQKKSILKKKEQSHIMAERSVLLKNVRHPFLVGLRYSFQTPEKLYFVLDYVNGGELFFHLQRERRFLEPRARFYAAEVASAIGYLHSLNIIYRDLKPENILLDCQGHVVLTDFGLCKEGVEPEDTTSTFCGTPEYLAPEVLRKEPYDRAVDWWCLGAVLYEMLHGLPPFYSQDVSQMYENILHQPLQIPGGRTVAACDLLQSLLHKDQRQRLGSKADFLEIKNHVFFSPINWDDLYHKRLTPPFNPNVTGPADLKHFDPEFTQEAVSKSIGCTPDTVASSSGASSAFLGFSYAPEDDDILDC
Sequence of TAOK1 (human) (Q7L7X3 whole entry, looked up): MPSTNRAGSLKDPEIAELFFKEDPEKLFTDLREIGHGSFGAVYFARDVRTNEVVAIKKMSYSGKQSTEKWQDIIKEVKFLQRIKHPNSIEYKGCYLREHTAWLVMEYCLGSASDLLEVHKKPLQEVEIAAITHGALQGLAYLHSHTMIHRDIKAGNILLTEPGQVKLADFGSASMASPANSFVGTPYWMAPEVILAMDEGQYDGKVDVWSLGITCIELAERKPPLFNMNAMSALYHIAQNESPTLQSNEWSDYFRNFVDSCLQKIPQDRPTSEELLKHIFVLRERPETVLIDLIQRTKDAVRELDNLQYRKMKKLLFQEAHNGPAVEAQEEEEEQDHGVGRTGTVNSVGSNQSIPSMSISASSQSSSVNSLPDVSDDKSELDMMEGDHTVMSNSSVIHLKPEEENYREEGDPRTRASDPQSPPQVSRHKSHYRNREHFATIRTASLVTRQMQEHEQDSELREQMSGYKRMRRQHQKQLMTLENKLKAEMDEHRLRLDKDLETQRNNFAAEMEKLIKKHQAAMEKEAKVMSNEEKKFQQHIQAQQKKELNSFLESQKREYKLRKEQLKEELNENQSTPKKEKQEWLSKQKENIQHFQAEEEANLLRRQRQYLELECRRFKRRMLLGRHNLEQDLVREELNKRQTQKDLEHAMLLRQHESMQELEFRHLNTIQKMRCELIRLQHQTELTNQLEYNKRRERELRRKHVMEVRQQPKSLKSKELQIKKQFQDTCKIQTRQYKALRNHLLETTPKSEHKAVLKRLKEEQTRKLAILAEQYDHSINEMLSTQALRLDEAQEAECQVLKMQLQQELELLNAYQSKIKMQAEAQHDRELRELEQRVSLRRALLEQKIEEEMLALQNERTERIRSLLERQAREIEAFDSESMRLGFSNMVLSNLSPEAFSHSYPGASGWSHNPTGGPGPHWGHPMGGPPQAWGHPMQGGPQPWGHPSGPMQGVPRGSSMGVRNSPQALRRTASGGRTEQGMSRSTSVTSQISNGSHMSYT
Sequence of DYRK3 (human) (O43781 whole entry, looked up): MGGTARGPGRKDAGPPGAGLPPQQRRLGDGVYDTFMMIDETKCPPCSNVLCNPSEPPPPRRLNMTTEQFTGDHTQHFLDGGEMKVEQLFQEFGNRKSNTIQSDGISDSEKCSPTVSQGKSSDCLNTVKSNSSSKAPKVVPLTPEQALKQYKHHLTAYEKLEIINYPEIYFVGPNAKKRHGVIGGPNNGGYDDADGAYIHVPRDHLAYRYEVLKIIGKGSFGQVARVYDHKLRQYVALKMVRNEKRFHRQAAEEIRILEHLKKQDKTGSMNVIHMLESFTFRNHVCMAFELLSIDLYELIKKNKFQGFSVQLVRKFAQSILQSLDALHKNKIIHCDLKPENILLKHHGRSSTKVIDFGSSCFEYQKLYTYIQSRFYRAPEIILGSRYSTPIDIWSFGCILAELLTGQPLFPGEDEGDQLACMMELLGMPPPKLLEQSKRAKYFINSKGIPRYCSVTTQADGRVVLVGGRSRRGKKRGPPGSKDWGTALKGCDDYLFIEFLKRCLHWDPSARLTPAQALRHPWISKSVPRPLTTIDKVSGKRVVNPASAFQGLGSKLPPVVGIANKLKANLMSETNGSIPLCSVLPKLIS

CS(=O)(=O)CCNCc1ccc(-c2ccc3ncnc(Nc4ccc(OCc5cccc(F)c5)c(Cl)c4)c3c2)o1
residual activity (RPS6KB2 (human)): 100% | residual activity (CLK1 (human)): 107% | residual activity (BRSK1 (human)): 98.6% | residual activity (ROS1 (human)): 107% | residual activity (RIPK2 (human)): 110% | residual activity (CDK4 CCND3 (human)): 104% | residual activity (BLK (human)): 95.9% | residual activity (MAP3K3 (human)): 110% | residual activity (CDK4 CCND1 (human)): 94.8% | residual activity (AXL (human)): 96.2% | residual activity (LYN (human)): 103% and 104% | residual activity (EPHB4 (human)): 94.1% | residual activity (PRKD3 (human)): 88.6% | residual activity (MUSK (human)): 96.5% | residual activity (CSNK1A1 (human)): 104% | residual activity (SGK2 (human)): 106% | residual activity (YES1 (human)): 84.7% | residual activity (CDK9 CCNT1 (human)): 85.2% | residual activity (PIM2 (human)): 102% | residual activity (JAK3 JH1 JH2 (human)): 96.2% | residual activity (TAOK1 (human)): 98.8% | residual activity (STK39 (human)): 100% | residual activity (CAMK1D (human)): 104% | residual activity (MARK2 (human)): 137% | residual activity (TGFBR2 (human)): 96.1% | residual activity (ULK2 (human)): 104% | residual activity (LCK (human)): 94.2% | residual activity (DYRK3 (human)): 90.2% | residual activity (DMPK (human)): 94.7% | residual activity (PRKG1 (human)): 95.4% and 99.7% | residual activity (CDC42BPB (human)): 95.7% | residual activity (CLK3 (human)): 107% | residual activity (ABL1 (human)): 96.4% | residual activity (RPS6KB1 (human)): 95.7% | residual activity (FGFR3 (human)): 96.7% | residual activity (CDK5 CDK5R1 p35 (human)): 103% | residual activity (GRK5 (human)): 97.2% | residual activity (ROCK2 (human)): 92.7% | residual activity (FRK (human)): 104% | residual activity (CAMK1 (human)): 102% | residual activity (LIMK1 (human)): 95.2% | residual activity (WNK2 (human)): 102%

Cc1nc(-c2ccccc2)c(-c2ccncc2)o1
residual activity (RPS6KB2 (human)): 96% | residual activity (CLK1 (human)): 105% | residual activity (BRSK1 (human)): 99.8% | residual activity (ROS1 (human)): 96% | residual activity (RIPK2 (human)): 87.4% | residual activity (CDK4 CCND3 (human)): 107% | residual activity (BLK (human)): 95.4% | residual activity (MAP3K3 (human)): 101% | residual activity (CDK4 CCND1 (human)): 114% | residual activity (AXL (human)): 91.1% | residual activity (LYN (human)): 104% and 97.4% | residual activity (EPHB4 (human)): 84.8% | residual activity (PRKD3 (human)): 94.3% | residual activity (MUSK (human)): 95.9% | residual activity (CSNK1A1 (human)): 86.4% | residual activity (SGK2 (human)): 105% | residual activity (YES1 (human)): 101% | residual activity (CDK9 CCNT1 (human)): 84.6% | residual activity (PIM2 (human)): 110% | residual activity (JAK3 JH1 JH2 (human)): 90.7% | residual activity (TAOK1 (human)): 98.5% | residual activity (STK39 (human)): 97.1% | residual activity (CAMK1D (human)): 93.9% | residual activity (MARK2 (human)): 94.3% | residual activity (TGFBR2 (human)): 133% | residual activity (ULK2 (human)): 102% | residual activity (LCK (human)): 99.7% | residual activity (DYRK3 (human)): 105% | residual activity (DMPK (human)): 103% | residual activity (PRKG1 (human)): 90.5% and 96.1% | residual activity (CDC42BPB (human)): 101% | residual activity (CLK3 (human)): 90.6% | residual activity (ABL1 (human)): 100% | residual activity (RPS6KB1 (human)): 92.8% | residual activity (FGFR3 (human)): 95.6% | residual activity (CDK5 CDK5R1 p35 (human)): 104% | residual activity (GRK5 (human)): 104% | residual activity (ROCK2 (human)): 97.6% | residual activity (FRK (human)): 103% | residual activity (CAMK1 (human)): 105% | residual activity (LIMK1 (human)): 95.5% | residual activity (WNK2 (human)): 101%
